Test results published in patent publication US9440948B2, “Nicotine compounds and analogs thereof, synthetic methods of making compounds, and methods of use” (priority 2010, dated 2016).
Entries after “also recorded” stand apart in the source; their conditions may differ. Where two headings read alike, the source gives them in different places.

Tests used:
[1] = test system: alpha7 receptors relative to alpha4beta2 nAChRs; details: Martin et al., 2004; cited from earlier work
[2] = target: T1, α4β2 receptors (Homo sapiens, UniProt P17787+P43681); assay type: cell-based; details: for agonist activity/potency on α4β2 receptors (in words): oocytes expressing α4β2 receptors
T1 construct: expressed in transfected cells; host or cells: Xenopus laevis oocytes (mRNA injection, alpha4:beta2 1:1)
Excerpt: (§1) ACh control applications alternated with test compound applications.

[3] = test system: α6/α3 chimera/β2 receptors; details: oocytes, FIG. 2.13
Procedure: Mature female Xenopus laevis were anesthetized by immersion in a 1.5 g/L solution of aminobenzoic acid ethyl ester (MP Biomedicals, LLC, Solon, Ohio) for 30 min. The excised ovary bag was placed into calcium-free Barth's saline (88 mM NaCl, 1 mM KCl, 2.38 mM NaHCO3, 0.82 mM MgSO4, 15 mM HEPES, 0.012 mg/ml tetracycline hydrochloride, pH 7.3+−0.1), opened with forceps and washed three times with Barth's saline. Then 60 ml collagenase solution (76 mg Sigma type XX collagenase dissolved in Ca^2+-free Barth saline) was added and the oocyte containing mass was shaken for 2 hours at 5° C. After washing three times with Ca^2+-free Barth's and then three times with Barth's solution containing calcium, the oocytes were evaluated under a stereo microscope. Healthy stage 5 oocytes were transferred into new dishes and incubated in 17° C. for overnight. Oocytes were injected with either 50 nl of alpha7 mRNA solution (20 ng) or 50 nl of a mixture of alpha4 and beta2 (1:1, 10 ng) mRNA, using a Drummond Nanoject II Auto-Injector. The cells were cultured in Barth's saline at 17° C. for 5-16 days, with daily changes in the saline. […] Membrane currents were recorded with an AxoClamp-2 (Axon Instruments, Union City, Calif.), filtered at 10 kHz and sampled at 5 kHz. […]

[4] = test system: rat brain nAChRs that bind nicotine with high affinity; details: reference 7; cited from earlier work
[5] = target: T2, α7 receptors (Homo sapiens, UniProt P36544); assay type: cell-based; details: oocytes expressing α7 receptors
T2 construct: expressed in transfected cells; host or cells: Xenopus laevis oocytes (mRNA injection)
Excerpt: as §1

[6] = listed as 3-(((2S,5S)-1,5-Dimethylpyrrolidine-2-yl)methoxy)-pyridine

T1 sequence (P43681 29-627 limits assumed): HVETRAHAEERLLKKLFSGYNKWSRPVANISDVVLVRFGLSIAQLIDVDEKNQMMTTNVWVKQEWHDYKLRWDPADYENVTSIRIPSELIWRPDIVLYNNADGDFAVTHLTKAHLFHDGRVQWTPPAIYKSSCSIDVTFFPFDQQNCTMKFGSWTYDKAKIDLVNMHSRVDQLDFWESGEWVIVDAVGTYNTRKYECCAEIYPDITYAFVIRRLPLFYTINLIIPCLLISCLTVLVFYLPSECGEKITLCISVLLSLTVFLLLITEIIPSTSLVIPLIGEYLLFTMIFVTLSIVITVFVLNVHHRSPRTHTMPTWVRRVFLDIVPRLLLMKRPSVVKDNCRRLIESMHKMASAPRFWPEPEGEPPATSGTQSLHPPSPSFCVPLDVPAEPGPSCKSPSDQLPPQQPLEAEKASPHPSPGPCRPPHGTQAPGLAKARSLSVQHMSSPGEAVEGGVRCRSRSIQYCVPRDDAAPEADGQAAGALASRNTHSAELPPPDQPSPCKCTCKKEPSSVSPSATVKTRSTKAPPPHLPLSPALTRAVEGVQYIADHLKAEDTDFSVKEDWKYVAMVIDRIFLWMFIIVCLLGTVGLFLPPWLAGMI
T1 sequence (P17787 26-502): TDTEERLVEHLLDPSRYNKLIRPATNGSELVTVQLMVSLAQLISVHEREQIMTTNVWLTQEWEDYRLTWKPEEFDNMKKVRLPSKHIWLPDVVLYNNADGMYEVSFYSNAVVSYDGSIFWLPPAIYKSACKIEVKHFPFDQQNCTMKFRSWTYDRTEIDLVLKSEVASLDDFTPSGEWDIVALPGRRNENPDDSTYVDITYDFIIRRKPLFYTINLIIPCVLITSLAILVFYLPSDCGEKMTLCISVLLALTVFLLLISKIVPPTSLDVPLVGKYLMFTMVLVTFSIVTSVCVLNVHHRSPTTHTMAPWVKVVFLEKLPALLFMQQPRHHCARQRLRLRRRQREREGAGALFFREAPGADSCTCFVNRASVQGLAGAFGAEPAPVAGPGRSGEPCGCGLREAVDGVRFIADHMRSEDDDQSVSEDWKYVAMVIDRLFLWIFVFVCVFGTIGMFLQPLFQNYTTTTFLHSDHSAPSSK
T2 sequence (P36544 23-502): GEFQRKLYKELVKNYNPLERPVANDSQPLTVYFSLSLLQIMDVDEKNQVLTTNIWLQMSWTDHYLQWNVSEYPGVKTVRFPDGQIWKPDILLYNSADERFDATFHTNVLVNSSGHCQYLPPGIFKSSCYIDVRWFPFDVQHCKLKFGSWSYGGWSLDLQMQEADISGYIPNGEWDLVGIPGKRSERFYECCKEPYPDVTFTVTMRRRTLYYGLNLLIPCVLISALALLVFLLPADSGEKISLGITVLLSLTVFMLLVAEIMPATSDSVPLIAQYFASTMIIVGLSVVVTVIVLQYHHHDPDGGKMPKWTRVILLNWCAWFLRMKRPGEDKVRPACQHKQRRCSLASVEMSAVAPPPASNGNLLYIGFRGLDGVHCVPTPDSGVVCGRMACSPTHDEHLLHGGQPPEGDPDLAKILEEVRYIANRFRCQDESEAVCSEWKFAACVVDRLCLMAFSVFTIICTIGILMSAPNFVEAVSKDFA

SMILES: CN1CCC[C@H]1c1cccnc1 [nicotine, (S)-nicotine]
- alpha7 receptors less sensitive to nicotine relative to alpha4beta2 nAChRs [1]: at least 50 ×

SMILES: C[C@H]1CC[C@@H](c2cccnc2)N1C [5′ Cis-Me-Nic]
- agonist activity/potency on α4β2 receptors (in words) [2]: inactive
- response of α6/α3 chimera/β2 receptors (in words) [3]: essentially identical manner

SMILES: CCC1(c2cccnc2)CCCN1C (racemic) [2′-ethyl-nicotine, (±)-2′-Ethylnicotine]
- displacement of radiolabeled methylcarbamylcholine binding (in words) [4]: displace the binding

SMILES: C[C@@H]1CC[C@@H](COc2cccnc2)N1C [3-(((2S,5R)-1,5-Dimethylpyrrolidin-2-yl)methoxy)pyridine]
- agonist activity/potency on α4β2 receptors (in words) [2]: essentially no agonistic activity

SMILES: CN1CCC1c1cccnc1 (stereo not drawn) [trans-3-(1-methylazetidin-2-yl)pyridine]
- agonist activity/potency on α4β2 receptors (in words) [2]: more potent strong agonist
- agonist activity/potency on α7 receptors (in words) [5]: more potent strong agonist

SMILES: C[C@H]1C[C@H](c2cccnc2)N1C (relative stereo) [Trans-3-(1,4-Dimethylazetidin-2-yl)pyridine]
- potency of trans- versus cis-diastereomers on α4β2 receptors (in words) ([2]; oocytes, FIG. 3.4): significantly more potent than the cis-diastereomers

SMILES: C[C@@H]1CC[C@@H](c2cccnc2)N1C [5′ Trans-Me-Nic]
- agonist activity/potency on α4β2 receptors (in words) [2]: inactive
- response of α6/α3 chimera/β2 receptors (in words) [3]: essentially identical manner

SMILES: CN1CCCC1(C)c1cccnc1 (racemic) [2′ methyl-nicotine, (±)-2′-Methylnicotine]
- agonist activity/potency on α4β2 receptors (in words) [2]: excellent agonist activity
- agonist activity/potency on α7 receptors (in words) [5]: excellent agonist activity
- increase in potency at α7 nAChR relative to nicotine ([5]; FIG. 2.10): 6.7 fold
- displacement of radiolabeled methylcarbamylcholine binding (in words) [4]: displace the binding

SMILES: C[C@H]1CC[C@@H](COc2cccnc2)N1C [3-(((2S,5S)-1,5-Dimethylpyrrolidin-2-yl)methoxy)pyridine]
- agonist activity/potency on α4β2 receptors (in words) [2]: essentially no agonistic activity
- agonist activity/potency on α4β2 receptors (in words) [2, 6]: low activity
- agonist activity/potency on α7 receptors (in words) [5, 6]: high potency; also recorded: low activity
